# Earlier results in PubChem BioAssay AID1259409 (Chemical Carcinogenesis Research Information System (CCRIS), 2018).
# Tested on: rodent chemically induced tumor inhibition, incidence and multiplicity
# Test: CCRIS tumor inhibitor studies
# Conditions: Dose [Inhibitor]: 0
smiles,measurement,setting,value
C=C(C)[C@H]1Cc2c(ccc3c2O[C@@H]2COc4cc(OC)c(OC)cc4[C@@H]2C3=O)O1,"tumour outcome (control, treated, inhibition, significance)","Carcinogen: AZOXYMETHANE (25843-45-2), 500 PPM IN DIET FOR 4 WK, BEGINNING 1 WK BEFORE THE FIRST CARCINOGEN DOSE (STUDY DURATION: 38 WK), Route [Inhibitor]: ORAL, Species: RAT, Strain/Sex: F344/MALE, Target Tissue: Type of Lesion: LARGE INTESTINE: ADENOCARCINOMA, Dose [Carcinogen]: 15 MG/KG BW 1 INJECTION/WK FOR 3 WK, Promoter: NONE USED","9/15 (60%), 6/19 (32%), 47%, not significant"
same,"tumour outcome (control, treated, inhibition, significance)","Carcinogen: AZOXYMETHANE (25843-45-2), 500 PPM IN DIET FOR 4 WK, BEGINNING 1 WK BEFORE THE FIRST CARCINOGEN DOSE (STUDY DURATION: 38 WK), Route [Inhibitor]: ORAL, Species: RAT, Strain/Sex: F344/MALE, Target Tissue: Type of Lesion: LARGE INTESTINE: ADENOMA, Dose [Carcinogen]: 15 MG/KG BW 1 INJECTION/WK FOR 3 WK, Promoter: NONE USED","4/15 (27%), 2/19 (11%), 59%, not significant"
same,"tumour outcome (control, treated, inhibition, significance)","Carcinogen: AZOXYMETHANE (25843-45-2), 500 PPM IN DIET FOR 4 WK, BEGINNING 1 WK BEFORE THE FIRST CARCINOGEN DOSE (STUDY DURATION: 38 WK), Route [Inhibitor]: ORAL, Species: RAT, Strain/Sex: F344/MALE, Target Tissue: Type of Lesion: SMALL INTESTINE: ADENOCARCINOMA, Dose [Carcinogen]: 15 MG/KG BW 1 INJECTION/WK FOR 3 WK, Promoter: NONE USED","4/15 (27%), 1/19 (5%), 81%, not significant"
same,"tumour outcome (control, treated, inhibition, significance)","Carcinogen: AZOXYMETHANE (25843-45-2), 500 PPM IN DIET FOR 4 WK, BEGINNING 1 WK BEFORE THE FIRST CARCINOGEN DOSE (STUDY DURATION: 38 WK), Route [Inhibitor]: ORAL, Species: RAT, Strain/Sex: F344/MALE, Target Tissue: Type of Lesion: SMALL INTESTINE: ADENOMA, Dose [Carcinogen]: 15 MG/KG BW 1 INJECTION/WK FOR 3 WK, Promoter: NONE USED","1/15 (7%), 0/19 (0%), 100%, not significant"
same,"tumour outcome (control, treated, inhibition, significance)","Carcinogen: AZOXYMETHANE (25843-45-2), 500 PPM IN DIET FOR 34 WK, BEGINNING 1 WK AFTER THE LAST CARCINOGEN DOSE (STUDY DURATION: 38 WK), Route [Inhibitor]: ORAL, Species: RAT, Strain/Sex: F344/MALE, Target Tissue: Type of Lesion: LARGE INTESTINE: ADENOCARCINOMA, Dose [Carcinogen]: 15 MG/KG BW 1 INJECTION/WK FOR 3 WK, Promoter: NONE USED","9/15 (60%), 3/16 (19%), 68%, p= 0.0226"
same,"tumour outcome (control, treated, inhibition, significance)","Carcinogen: AZOXYMETHANE (25843-45-2), 500 PPM IN DIET FOR 34 WK, BEGINNING 1 WK AFTER THE LAST CARCINOGEN DOSE (STUDY DURATION: 38 WK), Route [Inhibitor]: ORAL, Species: RAT, Strain/Sex: F344/MALE, Target Tissue: Type of Lesion: LARGE INTESTINE: ADENOMA, Dose [Carcinogen]: 15 MG/KG BW 1 INJECTION/WK FOR 3 WK, Promoter: NONE USED","4/15 (27%), 1/16 (6%), 78%, not significant"
same,"tumour outcome (control, treated, inhibition, significance)","Carcinogen: AZOXYMETHANE (25843-45-2), 500 PPM IN DIET FOR 34 WK, BEGINNING 1 WK AFTER THE LAST CARCINOGEN DOSE (STUDY DURATION: 38 WK), Route [Inhibitor]: ORAL, Species: RAT, Strain/Sex: F344/MALE, Target Tissue: Type of Lesion: SMALL INTESTINE: ADENOCARCINOMA, Dose [Carcinogen]: 15 MG/KG BW 1 INJECTION/WK FOR 3 WK, Promoter: NONE USED","4/15 (27%), 1/16 (6%), 78%, not significant"
same,"tumour outcome (control, treated, inhibition, significance)","Carcinogen: AZOXYMETHANE (25843-45-2), 500 PPM IN DIET FOR 34 WK, BEGINNING 1 WK AFTER THE LAST CARCINOGEN DOSE (STUDY DURATION: 38 WK), Route [Inhibitor]: ORAL, Species: RAT, Strain/Sex: F344/MALE, Target Tissue: Type of Lesion: SMALL INTESTINE: ADENOMA, Dose [Carcinogen]: 15 MG/KG BW 1 INJECTION/WK FOR 3 WK, Promoter: NONE USED","1/15 (7%), 0/16 (0%), 100%, not significant"
same,outcome,"Carcinogen: DIETHYLNITROSAMINE, 0.005, 0.5, 500 PPM FOR 11 OR 43 WK BEGINNING 1 WK AFTER CARCINOGEN (STUDY DURATION: 45 WK), 0.005, 0.5, 500 PPM FOR 11 OR 43 WK BEGINNING 1 WK AFTER CARCINOGEN (STUDY DURATION: 45 WK), Route [Inhibitor]: DIET, Species: RAT, Strain/Sex: F344/MALE, Target Tissue: Type of Lesion: LIVER: HEPATOCELLULAR CARCINOMA, HEPATOCELLULAR ADENOMA, Dose [Carcinogen]: 100 MG/KG BW TWICE AT 1 WK INTERVALS (STUDY DURATION: 45 WK)",60; 35; 65; 100: 55; 65; 50; 100
CC[C@H](C)C(=O)O[C@H]1CCC=C2C=C[C@H](C)[C@H](CC[C@@H]3C[C@@H](O)CC(=O)O3)[C@H]21,"tumour outcome (control, treated, inhibition, significance)","Carcinogen: N-ETHYL-N-HYDROXYETHYLNITROSAMINE, 13147-25-6, 0.02% IN DIET BEGINNING 23 WK POST LAST CARCINOGEN DOSE AND CONTINUING TO WK 40 (STUDY DURATION: 40 WK), Route [Inhibitor]: ORAL, Species: RAT, Strain/Sex: WISTAR/MALE, Target Tissue: Type of Lesion: KIDNEY: RENAL CELL TUMORS, Dose [Carcinogen]: 0.1% IN DIET FOR 2 WK, Promoter: NONE USED","6/17 (35%), 1/10 (10%), 71%, not calculated"
COC(=O)/C(C)=C/C=C/C(C)=C\C=C\C=C(C)\C=C\C=C(C)\C=C\C1=C(C)CCCC1(C)C,"tumour outcome (control, treated, inhibition, significance)","Carcinogen: BENZO[A]PYRENE, 50-32-8, 4.7 MICROMOLAR/D IN 0.1 ML PEANUT OIL BEGINNING 2 WK PRIOR TO CARCINOGEN TREATMENT AND CONTINUING TO 2 WK POST CARCIN, Route [Inhibitor]: GAVAGE, Species: MOUSE, Strain/Sex: SWISS/FEMALE, Target Tissue: Type of Lesion: FORESTOMACH: TUMOR, Dose [Carcinogen]: 1 MG 2/WK IN 0.1 ML PEANUT OIL FOR 4 WK, Promoter: NONE USED","20/20 (100%), 4/20 (20%), 80%, p<0.001"
CC(C)(O)CCC(=O)C(C)(O)C1[C@H](O)C[C@@]2(C)[C@@H]3CC=C4[C@@H](C[C@H](O)[C@@H](O)C4(C)C)[C@]3(C)C(=O)C[C@]12C (some centres not stated),"tumour outcome (control, treated, inhibition, significance)","Carcinogen: 7,12-DIMETHYLBENZ[A]ANTHRACENE, 57-97-6, 85 NMOL IN 0.1 ML ACETONE APPLIED 1 HR PRIOR TO EACH PROMOTER DOSE 2/WK FOR 20 WK (STUDY DURATION: 21 WK), Route [Inhibitor]: DERMAL, Species: MOUSE, Strain/Sex: ICR/FEMALE, Target Tissue: Type of Lesion: SKIN: PAPILLOMA, Dose [Carcinogen]: 100 UG IN 0.1 ML ACETONE ONCE, Promoter: 12-O-TETRADECANOYLPHORBOL-13-ACETATE, 16561-29-8","100%, 100%, 0%, not significant"
